{"source": "patent US20170266284A1", "about": "“PERSONALIZED METHODS FOR TREATING DISEASE BY RADIOSENSITIZATION” (Shuttle Pharmaceuticals, LLC, priority 2014, published 2017)", "key": {"[1]": {"tested_on": "High Grade Sarcomas", "assay": "IUdR as radiosensitizer with RT in patients with high grade sarcomas, vs historical controls", "assay_type": "in vivo, human"}, "[2]": {"tested_on": "cells", "details": "compared to cells without the defective DNA; cited from earlier work"}, "[3]": {"tested_on": "locally advanced rectal cancer", "assay": "Concomitant daily oral capecitabine and oral IPdR during radiation therapy (proposed)", "assay_type": "in vivo, human", "details": "oral IPdR with oral capecitabine during radiation therapy; expected (\"may\")", "protocol": "This may, in turn, correlate with increased survival and improved quality of life for these patients. By establishing the MTD and documenting the plasma PK data for once daily oral administration of IPdR combined with fractionated radiation therapy (37.5 Gy @ 2.5 Gy fractions over 3 weeks), the daily (or twice daily) IPdR dose may be reduced by two dose levels, while using standard doses of capecitabine (750 mg/M^2) and radiation therapy (50.4-54 Gy @ 1.8 Gy fractions)."}, "[4]": {"tested_on": "subcutaneous xenografts of human glioblastoma cell lines and human colorectal cancer cell lines", "details": "daily oral IPdR compared to continuous infusion IUdR; cited from earlier work"}, "[5]": {"tested_on": "proliferating normal tissues (bone marrow and intestine)", "details": "daily oral IPdR compared to continuous infusion IUdR; cited from earlier work"}, "[6]": {"details": "multiple daily oral IPdR dosing, pre-clinical; cited from earlier work"}, "[7]": {"tested_on": "clinical Stage 2 and 3 rectal cancers", "details": "cited from earlier work; for patients achieving tumor (T stage) downstaging: pre-operative chemoradiation, continuous infusion 5-FU or twice daily capecitabine"}}, "note": "Several values for one entry are separate records, joined by “and”; a condition that tells them apart may be missing. Identical values can stand only once.", "data": [{"compound": "O=c1[nH]c(=O)n([C@H]2C[C@H](O)[C@@H](CO)O2)cc1I", "note": "[IUdR, 5-iodo-2′-deoxyuridine]", "values": [{"measurement": "Median Survival (Months)", "setting": "[1]; RT + IUdR + Surgery, High Grade Sarcomas (Resectable), RT + Surgery 25%", "result": 45, "unit": "%"}, {"measurement": "Median Survival (Months)", "setting": "[1]; RT + IUdR, High Grade Sarcomas (Un-Resectable), RT alone <10%", "result": 60, "unit": "%"}, {"measurement": "cells more susceptible to the lethal effects of radiation therapy", "setting": "[2]", "result": "two to three fold"}]}, {"compound": "O=c1[nH]c(=O)n([C@H]2C[C@H](O)[C@@H](CO)O2)cc1Br", "note": "[BUdR, 5-bromo-2′-deoxyuridine]", "values": [{"measurement": "cells more susceptible to the lethal effects of radiation therapy", "setting": "[2]", "result": "two to three fold"}]}, {"compound": "O=c1ncc(I)cn1[C@H]1C[C@H](O)[C@@H](CO)O1", "note": "[IPdR, 5-iodo-2-pyrimidinone-2′-deoxyribose]", "values": [{"measurement": "pCR rate", "setting": "[3]", "result": "> 30", "unit": "%"}, {"measurement": "increased % IUdR-DNA incorporation into tumor tissues", "setting": "[4]", "result": "2-3 fold"}, {"measurement": "decreased % IUdR-DNA incorporation into proliferating normal tissues (bone marrow and intestine / gut epithelium)", "setting": "[5]", "result": "2-3 fold and 2 fold"}, {"measurement": "acute and subacute normal tissue toxicities", "setting": "[6]", "result": "without significant dose-limiting acute and subacute normal tissue toxicities"}]}, {"compound": "CCCCCOC(=O)Nc1nc(=O)n([C@@H]2O[C@H](C)[C@@H](O)[C@H]2O)cc1F", "note": "[capecitabine]", "values": [{"measurement": "pCR, local recurrence, and overall survival, comparison with infusional 5-FU", "setting": "[7]; capecitabine administered twice daily", "result": "equivalent to infusional 5-FU"}, {"measurement": "patients achieving tumor (T stage) downstaging", "setting": "[7]", "result": "about 45%"}]}, {"compound": "O=c1[nH]cc(F)c(=O)[nH]1", "note": "[5-FU, 5-fluorouracil]", "values": [{"measurement": "patients achieving tumor (T stage) downstaging", "setting": "[7]", "result": "about 45%"}]}]}
